Laboratory results taken from ChEMBL document CHEMBL1126377, “Synthesis of 9-[2-(phosphonomethoxy)ethylamino]adenine and 9-[(phosphonomethoxy)acetamido]adenine, analogues of a potent anti-HIV acyclonucleotide” (Bioorg Med Chem Lett, 1992).
The source made the active and inactive calls. No cut-off for these calls is given here.

Key:
Type in all cases: functional, organism-based
[1] = tested on: Cytomegalovirus; assay: Effect on replication of cytomegalovirus at a concentration of 300 uM; NE=No effect
[2] = tested on: Human alphaherpesvirus 1; assay: Effect on replication of herpes simplex virus type 1 at a concentration of 300 uM; NE=No effect
[3] = tested on: Human immunodeficiency virus 1; assay: Inhibition of the replication of human immunodeficiency virus (HIV) at 10 uM concentration; NE=No effect
[4] = tested on: Human alphaherpesvirus 2; assay: Effect on replication of herpes simplex virus type 2 at a concentration of 300 uM; NE=No effect
[5] = tested on: Human alphaherpesvirus 3; assay: Effect on replication of varicella zoster virus at a concentration of 300 uM; NE=No effect
[6] = tested on: Human immunodeficiency virus 1; assay: Inhibition of the replication of human immunodeficiency virus (HIV) at 10 uM concentration

Row | IC50 [6] | SMILES | Activity [1] | Activity [2] | Activity [3] | Activity [4] | Activity [5]
1 | – | Nc1ncnc2c1ncn2NCCOCP(=O)(O)O | inactive | inactive | inactive | inactive | inactive
2 | 0.3 µM | Nc1ncnc2c1ncn2OCCOCP(=O)(O)O | – | – | – | – | –
3 | – | Nc1ncnc2c1ncn2NC(=O)COCP(=O)(O)O | inactive | inactive | inactive | inactive | inactive
4 | 10 µM | Nc1ncnc2c1ncn2OCC/C=C/P(=O)(O)O | – | – | – | – | –
